PubChem BioAssay AID2060503 (Molecular Pharmacology Branch, DTP, NCI, 2025)

Tested on: 817829-284-R-J1-PDC complex spheroids, viability
Test: Anticancer human tumor 817829-284-R-J1-PDC patient-derived colon adenocarcinoma cell line growth inhibition [GQUAD]
Details: second compound 0.0316 µM; first compound 3.16 µM; active compounds read low
Source text: DNA G-quadruplex Stabilizer Agents in Combinations in Complex Spheroids
A high-throughput screen of multi-cell type tumor spheroids was designed to identify active combinations of DNA G-quadruplex stabilizer agents and targeted small molecules. Complex spheroids include a stromal component modeled by human endothelial cells (HUVEC) and fibroblasts modeled by human mesenchymal stem cells (MSCs). The concentration ranges selected for each drug and investigational agent were based upon clinically achievable concentrations if the clinical Cmax of the agent was known.
Compounds. The drugs and investigational agents: pidnarulex (CX-5461; NSC782164), APTO-253 (NSC789042), BRACO-19 (NSC847499), peposertib (NSC802822), ceralasertib (NSC780249), elimusertib (NSC800525), camonsertib (NSC841442), AZD-1390 (NSC803789), olaparib (NSC753686), talazoparib (NSC767125), ART-558 (NSC835418), sotorasib (NSC818433), MRTX-1133 (NSC836407), SN-38 (NSC673596), topotecan (NSC609699), etoposide (NSC141540), doxorubicin (NSC123127), gemcitabine (NSC613327), 5-fluorouracil (NSC19893), paclitaxel (NSC125973), vemurafenib (NSC761431), panobinostat (NSC761190), R-306465 (JNJ-16241199; NSC773264), adavosertib (NSC754352), TP-3654 (NSC805149), carboplatin (NSC241240), KSQ-4279 (NSC840948), and staurosporine (NSC755774) were obtained from the National Cancer Institute (NCI) Developmental Therapeutics Program Chemical Repository (34). The FDA-approved anticancer drug set is available from the NCI Developmental Therapeutics Program. […] The stock solutions were prepared in dimethyl sulfoxide (DMSO, Sigma-Aldrich, St. Louis, MO, cat. D2650) at 800-fold the tested concentration and stored at -70 degrees C prior to their use. All drugs and investigational agents were tested over a range starting from a high concentration at or near the clinical Cmax and decreasing in half-log increments. If the clinical Cmax for an agent had not been determined, the highest concentration tested was 10 microM.
2.3 Cell Culture. All cells were maintained in an incubator at 37 degrees C and 5% CO2 with 95% humidity. The PDC lines were cultured according to standard operating procedures established by the NCI PDMR. All PDCs were thawed and cultured in Matrigel-coated flasks prepared with a working solution of 1X Ham's F-12 nutrient mix, without supplementation (Invitrogen, cat. 11765054), 100 U/mL penicillin-streptomycin (Invitrogen, cat. 15140122), and 2.5% Matrigel (Corning Inc., cat. 354248) for the first three passages. The 857933-349-R-J2-PDC line was cultured in 6C/Colon 1B media, which includes advanced DMEM/F-12 (Thermo Fisher Scientific, cat. 12634028), 10 mM HEPES (Thermo Fisher Scientific, cat. 15630080), 1X GlutaMAX supplement (Thermo Fisher Scientific, cat. 35050061), 0.1 mg/mL primocin (InvivoGen, cat. ant-pm-2), 10% defined fetal bovine serum, heat inactivated (HyClone Laboratories Inc., cat. SH30070.03HI), 50% L-WRN conditioned media (ATCC, cat. CRL-3276), 1.25 mM N-Acetyl-L-cysteine (Sigma-Aldrich, cat. A9165), 10 mM nicotinamide (Sigma-Aldrich, cat. N0636), 1X B-27 supplement (Thermo Fisher Scientific, cat. 17504044), 1X N-2 supplement (Thermo Fisher Scientific, cat. 17502048), 10 microM Y-27632 dihydrochloride (Tocris Bioscience, cat. 1254), and 50 ng/mL human EGF recombinant protein (Thermo Fisher Scientific, cat. PHG0311). The 485176-168-R4-J1-PDC line was cultured in Panc media, which includes all 6C/Colon 1B media components plus 100 ng/mL human FGF-10 (Thermo Fisher Scientific, cat. 100-26), 500 nM SB-431542 (Selleckchem, cat. S1067), and gastrin (Tocris, cat. 3006).
[…]
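Further: spheroids exposed to agents for 7 days before readout; percent viability relative to DMSO vehicle control taken as 100%.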

Compound | viability, T/C
CC1COCCN1c1cc(C2(S(C)(=N)=O)CC2)nc(-c2ccnc3[nH]ccc23)n1 (stereo unspecified) + Cc1[nH]c2ccc(F)cc2c1-c1nc2c3cccnc3c3ncccc3c2[nH]1 | 11.6%
COc1ccc([C@@H](O)c2cc(-c3ncnc4cc(N5CCOCC5)ccc34)c(F)cc2Cl)nn1 + Cc1[nH]c2ccc(F)cc2c1-c1nc2c3cccnc3c3ncccc3c2[nH]1 | 87.4%

Same assay, conditions: second compound 0.0316 µM; first compound 10 µM; active compounds read low

Compound | viability, T/C
CC(C)(O)C1CCC(Nc2ccc3ncc(-c4cccc(C(F)(F)F)c4)n3n2)CC1 (stereo unspecified) + CN(C)c1ccc(Nc2c3ccc(NC(=O)CCN4CCCC4)cc3nc3cc(NC(=O)CCN4CCCC4)ccc23)cc1 | 64.8%
CC1COCCN1c1cc(-c2ccnn2C)c2ccnc(-c3ccn[nH]3)c2n1 (stereo unspecified) + Cc1[nH]c2ccc(F)cc2c1-c1nc2c3cccnc3c3ncccc3c2[nH]1 | 4.47%
CC1COCCN1c1cc(C2(S(C)(=N)=O)CC2)nc(-c2ccnc3[nH]ccc23)n1 (stereo unspecified) + Cc1[nH]c2ccc(F)cc2c1-c1nc2c3cccnc3c3ncccc3c2[nH]1 | 8.11%
COc1ccc([C@@H](O)c2cc(-c3ncnc4cc(N5CCOCC5)ccc34)c(F)cc2Cl)nn1 + Cc1[nH]c2ccc(F)cc2c1-c1nc2c3cccnc3c3ncccc3c2[nH]1 | 53.6%

Same assay, conditions: second compound 0.1 µM; first compound 0.0316 µM; active compounds read low

Compound | viability, T/C
CC(C)(O)C1CCC(Nc2ccc3ncc(-c4cccc(C(F)(F)F)c4)n3n2)CC1 (stereo unspecified) + CN(C)c1ccc(Nc2c3ccc(NC(=O)CCN4CCCC4)cc3nc3cc(NC(=O)CCN4CCCC4)ccc23)cc1 | 98%
CC1COCCN1c1cc(-c2ccnn2C)c2ccnc(-c3ccn[nH]3)c2n1 (stereo unspecified) + Cc1[nH]c2ccc(F)cc2c1-c1nc2c3cccnc3c3ncccc3c2[nH]1 | 46.3%
CC1COCCN1c1cc(C2(S(C)(=N)=O)CC2)nc(-c2ccnc3[nH]ccc23)n1 (stereo unspecified) + Cc1[nH]c2ccc(F)cc2c1-c1nc2c3cccnc3c3ncccc3c2[nH]1 | 96.8%
COc1ccc([C@@H](O)c2cc(-c3ncnc4cc(N5CCOCC5)ccc34)c(F)cc2Cl)nn1 + Cc1[nH]c2ccc(F)cc2c1-c1nc2c3cccnc3c3ncccc3c2[nH]1 | 92.1%

Same assay, conditions: second compound 0.1 µM; first compound 0.1 µM; active compounds read low

Compound | viability, T/C
CC(C)(O)C1CCC(Nc2ccc3ncc(-c4cccc(C(F)(F)F)c4)n3n2)CC1 (stereo unspecified) + CN(C)c1ccc(Nc2c3ccc(NC(=O)CCN4CCCC4)cc3nc3cc(NC(=O)CCN4CCCC4)ccc23)cc1 | 101%
CC1COCCN1c1cc(-c2ccnn2C)c2ccnc(-c3ccn[nH]3)c2n1 (stereo unspecified) + Cc1[nH]c2ccc(F)cc2c1-c1nc2c3cccnc3c3ncccc3c2[nH]1 | 19.1%
CC1COCCN1c1cc(C2(S(C)(=N)=O)CC2)nc(-c2ccnc3[nH]ccc23)n1 (stereo unspecified) + Cc1[nH]c2ccc(F)cc2c1-c1nc2c3cccnc3c3ncccc3c2[nH]1 | 107%
COc1ccc([C@@H](O)c2cc(-c3ncnc4cc(N5CCOCC5)ccc34)c(F)cc2Cl)nn1 + Cc1[nH]c2ccc(F)cc2c1-c1nc2c3cccnc3c3ncccc3c2[nH]1 | 111%

Same assay, conditions: second compound 0.1 µM; first compound 0.316 µM; active compounds read low

Compound | viability, T/C
CC(C)(O)C1CCC(Nc2ccc3ncc(-c4cccc(C(F)(F)F)c4)n3n2)CC1 (stereo unspecified) + CN(C)c1ccc(Nc2c3ccc(NC(=O)CCN4CCCC4)cc3nc3cc(NC(=O)CCN4CCCC4)ccc23)cc1 | 90.3%
CC1COCCN1c1cc(-c2ccnn2C)c2ccnc(-c3ccn[nH]3)c2n1 (stereo unspecified) + Cc1[nH]c2ccc(F)cc2c1-c1nc2c3cccnc3c3ncccc3c2[nH]1 | 8.08%
CC1COCCN1c1cc(C2(S(C)(=N)=O)CC2)nc(-c2ccnc3[nH]ccc23)n1 (stereo unspecified) + Cc1[nH]c2ccc(F)cc2c1-c1nc2c3cccnc3c3ncccc3c2[nH]1 | 93.4%
COc1ccc([C@@H](O)c2cc(-c3ncnc4cc(N5CCOCC5)ccc34)c(F)cc2Cl)nn1 + Cc1[nH]c2ccc(F)cc2c1-c1nc2c3cccnc3c3ncccc3c2[nH]1 | 93.4%

Same assay, conditions: second compound 0.1 µM; first compound 1 µM; active compounds read low

Compound | viability, T/C
CC(C)(O)C1CCC(Nc2ccc3ncc(-c4cccc(C(F)(F)F)c4)n3n2)CC1 (stereo unspecified) + CN(C)c1ccc(Nc2c3ccc(NC(=O)CCN4CCCC4)cc3nc3cc(NC(=O)CCN4CCCC4)ccc23)cc1 | 95.9%
CC1COCCN1c1cc(-c2ccnn2C)c2ccnc(-c3ccn[nH]3)c2n1 (stereo unspecified) + Cc1[nH]c2ccc(F)cc2c1-c1nc2c3cccnc3c3ncccc3c2[nH]1 | 6.91%
CC1COCCN1c1cc(C2(S(C)(=N)=O)CC2)nc(-c2ccnc3[nH]ccc23)n1 (stereo unspecified) + Cc1[nH]c2ccc(F)cc2c1-c1nc2c3cccnc3c3ncccc3c2[nH]1 | 30.4%
